The supplement of paper PMC10307832

Tests used:
Assay in all cases: relative viability (nuclei count vs DMSO), 5 days (fraction); higher = more cells survive
QS11 + Vorinostat = compound: C1CC2=C(C1)C=C(C=C2)OC3=NC(=C4C(=N3)N(C=N4)CC5=CC=C(C=C5)C6=CC=CC=C6)N[C@@H](CC7=CC=CC=C7)CO [QS11] + O=C(CCCCCCC(=O)Nc1ccccc1)NO [Vorinostat] (partner 1 µM)
Procedure, shortened: (§1)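 Five library-drug doses in √10 steps were combined with a fixed anchor-drug dose, or a single drug was given alone, by pin tool to lung cancer cell lines in 1536-well plates the day after seeding. Nuclei were stained and counted after 5 days. Relative viability is the nuclei count in treated wells over that in vehicle wells, taken as the median of duplicate plates.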

QS11 + Crizotinib = compound: C1CC2=C(C1)C=C(C=C2)OC3=NC(=C4C(=N3)N(C=N4)CC5=CC=C(C=C5)C6=CC=CC=C6)N[C@@H](CC7=CC=CC=C7)CO [QS11] + C[C@@H](Oc1cc(-c2cnn(C3CCNCC3)c2)cnc1N)c1c(Cl)ccc(F)c1Cl [Crizotinib] (partner 1 µM)
Procedure, shortened: as §1

Darinaparsin + Olaparib = compound: C[As](C)SC[C@H](NC(=O)CC[C@H](N)C(=O)O)C(=O)NCC(=O)O [Darinaparsin] + O=C(c1cc(Cc2n[nH]c(=O)c3ccccc23)ccc1F)N1CCN(C(=O)C2CC2)CC1 [Olaparib] (partner 8 µM)
Procedure, shortened: as §1

[1] = compound: C[As](C)SC[C@H](NC(=O)CC[C@H](N)C(=O)O)C(=O)NCC(=O)O [Darinaparsin] + CC1(C)CCC(c2ccc(Cl)cc2)=C(CN2CCN(c3ccc(C(=O)NS(=O)(=O)c4ccc(N[C@H](CCN5CCOCC5)CSc5ccccc5)c(S(=O)(=O)C(F)(F)F)c4)cc3)CC2)C1 [Navitoclax] (partner 0.5 µM)
Procedure, shortened: as §1

Cell Line: SW 1573
- relative viability (QS11 + Vorinostat; first compound 0.08 µM): 0.912
- relative viability (QS11 + Vorinostat; first compound 0.253 µM): 0.629
- relative viability (QS11 + Vorinostat; first compound 0.8 µM): 0.52
- relative viability (QS11 + Vorinostat; first compound 2.53 µM): 0.296
- relative viability (QS11 + Vorinostat; first compound 8 µM): 0.253
- relative viability (QS11 + Crizotinib; first compound 0.08 µM): 0.802
- relative viability (QS11 + Crizotinib; first compound 0.253 µM): 0.796
- relative viability (QS11 + Crizotinib; first compound 0.8 µM): 0.817
- relative viability (QS11 + Crizotinib; first compound 2.53 µM): 0.629
- relative viability (QS11 + Crizotinib; first compound 8 µM): 0.876
- relative viability (Darinaparsin + Olaparib; first compound 0.08 µM): 0.592
- relative viability (Darinaparsin + Olaparib; first compound 0.8 µM): 0.493
- relative viability (Darinaparsin + Olaparib; first compound 2.53 µM): 0.42
- relative viability (Darinaparsin + Olaparib; first compound 8 µM): 0.431
- relative viability ([1]; first compound 0.08 µM): 1.23
- relative viability ([1]; first compound 0.8 µM): 0.991
- relative viability ([1]; first compound 2.53 µM): 1.01
- relative viability ([1]; first compound 8 µM): 0.992

Cell Line: UMC-11
- relative viability (QS11 + Vorinostat; first compound 0.08 µM): 0.385
- relative viability (QS11 + Vorinostat; first compound 0.253 µM): 0.373
- relative viability (QS11 + Vorinostat; first compound 0.8 µM): 0.462
- relative viability (QS11 + Vorinostat; first compound 2.53 µM): 0.37
- relative viability (QS11 + Vorinostat; first compound 8 µM): 0.459
- relative viability (QS11 + Crizotinib; first compound 0.08 µM): 0.724
- relative viability (QS11 + Crizotinib; first compound 0.253 µM): 0.616
- relative viability (QS11 + Crizotinib; first compound 0.8 µM): 0.653
- relative viability (QS11 + Crizotinib; first compound 2.53 µM): 0.679
- relative viability (QS11 + Crizotinib; first compound 8 µM): 0.686
- relative viability (Darinaparsin + Olaparib; first compound 0.08 µM): 0.494
- relative viability (Darinaparsin + Olaparib; first compound 0.8 µM): 0.347
- relative viability (Darinaparsin + Olaparib; first compound 2.53 µM): 0.536
- relative viability (Darinaparsin + Olaparib; first compound 8 µM): 0.346
- relative viability ([1]; first compound 0.08 µM): 0.339
- relative viability ([1]; first compound 0.8 µM): 0.313
- relative viability ([1]; first compound 2.53 µM): 0.305
- relative viability ([1]; first compound 8 µM): 0.311
